Measurements published in paper PMC4741952, “Small molecule RL71 targets SERCA2 at a novel site in the treatment of human colorectal cancer” (Oncotarget, 2015).

Molecular target: T1, SERCA2 (Homo sapiens, UniProt P16615)
T1 construct: gene ATP2A2; endogenous SERCA2 in SW480 whole-cell lysates
Test: competition by […] free RL71 of the RL71-biotin streptavidin pull-down (LC/MS, anti-SERCA2 western blot); Ca2+-ATPase inhibition in treated SW480 cells
Format: cell-based

T1 sequence (P16615 whole entry): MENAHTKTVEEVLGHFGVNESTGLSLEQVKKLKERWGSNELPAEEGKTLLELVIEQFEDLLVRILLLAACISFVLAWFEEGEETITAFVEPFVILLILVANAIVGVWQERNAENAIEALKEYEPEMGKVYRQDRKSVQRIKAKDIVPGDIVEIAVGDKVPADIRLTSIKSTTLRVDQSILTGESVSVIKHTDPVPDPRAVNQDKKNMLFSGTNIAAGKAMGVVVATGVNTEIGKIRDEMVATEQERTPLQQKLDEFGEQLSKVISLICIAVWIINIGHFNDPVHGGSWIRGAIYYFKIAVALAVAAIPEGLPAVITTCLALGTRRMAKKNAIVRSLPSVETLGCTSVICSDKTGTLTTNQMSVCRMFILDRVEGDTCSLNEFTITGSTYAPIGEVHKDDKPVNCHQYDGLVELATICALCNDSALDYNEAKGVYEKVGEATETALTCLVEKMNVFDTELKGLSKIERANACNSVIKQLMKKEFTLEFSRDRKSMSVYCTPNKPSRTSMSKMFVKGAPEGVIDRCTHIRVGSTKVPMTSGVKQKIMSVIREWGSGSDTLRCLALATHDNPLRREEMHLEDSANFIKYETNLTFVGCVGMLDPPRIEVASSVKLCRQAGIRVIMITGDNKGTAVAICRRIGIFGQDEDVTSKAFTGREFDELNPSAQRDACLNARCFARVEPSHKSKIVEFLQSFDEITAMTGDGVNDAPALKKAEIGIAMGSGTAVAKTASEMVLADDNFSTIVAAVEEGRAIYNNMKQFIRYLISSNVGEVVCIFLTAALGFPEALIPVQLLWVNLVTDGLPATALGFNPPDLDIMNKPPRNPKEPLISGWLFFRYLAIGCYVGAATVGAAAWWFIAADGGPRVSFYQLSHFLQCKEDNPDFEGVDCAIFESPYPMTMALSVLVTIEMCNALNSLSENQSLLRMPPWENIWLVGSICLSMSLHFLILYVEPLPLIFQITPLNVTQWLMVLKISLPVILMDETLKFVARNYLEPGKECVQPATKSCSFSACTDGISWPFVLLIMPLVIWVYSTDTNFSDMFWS

With `COc1cc(C=C2CN(C)CC(=Cc3cc(OC)c(OC)c(OC)c3)C2=O)cc(OC)c1OC` [compound 1, 3,5-bis(3,4,5-trimethoxybenzylidene)-1-methylpiperidine-4-one] the “competition by 200 μM free RL71 of the RL71-biotin streptavidin pull-down (LC/MS)” value was “The interaction between RL71-biotin and SERCA2 could be competed by RL71”.
